Consider three molecules from patent publication US20130210034A1, “COMPLEX PHOSPHOPROTEIN ACTIVATION PROFILES” (BECKMAN COULTER, INC., priority 2005, published 2013).

One assay has as its system pSTAT5. In words: Cytokine-stimulated phosphorylation in AML cell populations (BM or PB of AML patients). It counts as cell-based, human. The protocol: To assess the signal transduction response after growth factor simulation, a series comprising two sets of tubes including about 3×10^6 cells/100 μL were incubated at 37° C. for 30 minutes. After this pre-incubation period, tubes with then processes with either a stimulant or inhibitor. […] To examine the effects of protein phosphorylation inhibition, tubes were incubated with an inhibitor cocktail comprising 100 μM/100 μL UO126, 1 μM/100 μL LY294002, and 1 μM/100 μL rapamycin. One unstimulated tube receiving no stimulant or inhibitor was processed to assess basal levels of phospho-protein expression. After stimulation the cells were immediately fixed in 10% formaldehyde solution at 37° C. Pre-labeling with CD13, CD16 and CD64 antibodies was carried out 20 minutes prior to formaldehyde fixation. After fixation, one set of tubes was permeabilized without methanol for pAKT, pERK and pS6 staining and the other for 80% methanol permeabilized for pSTAT3 and pSTAT5 staining. After permeablization, the cells were washed in PBS with 2% BSA and blocked by re-suspended in 75 μL of PBS comprising 25% heat inactivated normal mouse serum, 25% normal rabbit serum. To stain cells with fluorescent conjugated monoclonal antibodies, samples were incubated on ice for 45 minutes in 100 μL of an antibody staining solution including either: 1) CD15-Pacific Orange, CD34-Phycoerythrin-Texas Red, CD117-Phycoerythrin-Cyanin 5.5, CD45-Allophycocyanin-Alexa Fluor 750 (or CD45-Pacific Orange, in which case CD15-Pacific Orange was omitted), pS6-Pacific Blue, pERK-Alexa Fluor 488 and pAKT-Alexa Fluor 647 or 2) CD15-Pacific Orange, CD34-Phycoerythrin-Texas Red, CD117-Phycoerythrin-Cyanin 5.5, CD45-Allophycocyanin-Alexa Fluor 750 or CD45-Pacific Blue, pSTAT3-Alexa Fluor 488 and pSTAT5-Phycoerythrin. The stained cells were washed twice with ice cold PBS containing 2% BSA and centrifuged at 800 g for 6 minutes at 4° C. The supernatant was discarded and cells re-suspended in 250 μL of chilled wash buffer for data acquisition. Stained cells were examined using either GALIOS flow cytometer (Beckman Coulter) or CYAN ADP (Beckman Coulter) equipped with 488 nm, 405 nm and 635 nm lasers to detect the degree of fluorescence. Data were analyzed using FCS Express (De Novo Software, CA) analysis software.
Specific phosphoprotein expression of pERK, pS6, pAKT, pSTAT5, and pSTAT3 was examined in seven discrete phenotypically defined populations based on 7-color immunophenotyping (FIG. 1). The percent of responding (phosphorprotein positive) cells for each of these populations was determined from individual single parameter histograms based on a fixed integration region set on the inhibitor treated control at about 3% positives.
Using normal BM signaling profiles of Example 1 as comparison, analysis of 14 AML samples was carried out to identify differences in signaling responses. White blood cells from BM or peripheral blood (PB) samples were obtained from 14 diagnosed AML patients undergoing routine clinical flow cytometry analysis using IRB approved protocols. The AML patients included newly diagnosed AML, AMLs arising in a background of MDS, therapy related AMLs and previously diagnosed AML post therapy. The median age of the patients at diagnosis was 51 years (range: 29-75 years) and represented 5 female and 9 male patients. The median white blood cell was 6.4 million/mL (range: 0.9-106 M/mL) and the BM morphologic blast count was an average of 46% (range: 0%-90%).
Experiments performed to assess the signal transduction response after growth factor simulation were performed as described for Example 1.

The test system of the next assay is lymphocytes. The experiment in a line: Cytokine response in lymphocytes from bone marrow samples of healthy donors (Example 4). The assay is classed as cell-based, human. To be noted: lymphocytes from healthy donor bone marrow (Example 4). The protocol: To assess the signal transduction response after growth factor simulation, 100 to 200 μL of processed samples including about 2×10^6 WBC/100 μL were added to tubes and incubated at 37° C. for 30 minutes. For inhibition experiments, cells were incubated with 100 μM U0126, 1 μg/mL rapamycin, or both for at least 20 minutes prior to cytokine addition and in all cases for 30 min prior to formaldehyde addition. […] After stimulation the cells were immediately fixed by the addition of formaldehyde to a final concentration of 4% v/v and incubated for 10 minutes at room temperature. […]
First, doublets, aggregates, and debris were excluded by gating on single cell events in the SSC-Area versus SSC-Height histogram. […] Finally, these cells were further analyzed for cytokine-mediated increases in phosphorylation by constructing gates in the single parameter histograms (for positively and negatively stained events, i.e., for the phosphorylated and non-phosphorylated forms, respectively, of each protein) for pS6 (FIGS. 4D and 4G), pERK (FIGS. 4E and 4H), and pSTAT5 (FIGS. 4F and 4I). […] Following this gating scheme, data were analyzed by calculating the area under the curve (AUC), the frequency of positive-stained cells, and the median fluorescence intensity (MFI).

Regarding “Granulocyte-Macrophage Colony-Stimulating Factor [GM-CSF]”, the “pSTAT5, AML Sample” value was 14.6 with pSTAT5 (patient AML2 (Example 3)); 2.0 in the assay on pSTAT5 (patient AML5 (Example 3)); 2.5 with pSTAT5 (patient AML6 (Example 3)); 10.6 in the assay on pSTAT5 (patient AML8 (Example 3)); 14.6 in the assay with pSTAT5 (patient AML13 (Example 3)); 4.7 in the assay with pSTAT5 (patient AML14 (Example 3)).
On to Stem Cell Factor [SCF], for which, in the assay on lymphocytes, the “Phosphorylation response in lymphocytes” value is “lack of SCF's effect”.

B1: FMS-Like Tyrosine Kinase 3 (FLT-3) ligand (protein, UniProt P49771 27-235, looked up)
Fms-related tyrosine kinase 3 …: TQDCSFQHSPISSDFAVKIRELSDYLLQDYPVTVASNLQDEELCGGLWRLVLAQRWMERLKTVAGSKMQGLLERVNTEIHFVTKCAFQPPPSCLRFVQTNISRLLQETSEQLVALKPWITRQNFSRCLELQCQPDSSTLPPPWSPRPLEATAPTAPQPPLLLLLLLPVGLLLLAAAWCLHWQRTRRRTPRPGEQVPPVPSPQDLLLVEH
For B1, the “Phosphorylation response in lymphocytes” value in the assay with lymphocytes is “no response”.
